Laboratory results as given in patent publication EP3154958B1, “PHOSPHATIDYLINOSITOL 3-KINASE INHIBITORS” (Gilead Sciences, Inc., priority 2014, dated 2015).
Read-outs that look alike come from different tables or passages of the source.

Tests used:
Format in all cases: biochemical
[1] = biological target: T1, PI3Kβ (Homo sapiens, UniProt P42338); assay: TR-FRET enzymatic activity assay, PI3Kβ
T1 construct: made in house
Experimental: (§1) The compounds of formula (I) were characterized for their enzymatic activity against the PI3K isoforms. The activities were measured using a time-resolved fluorescence resonance energy transfer (TR-FRET) assay.

[2] = biological target: T2, PI3Kδ (Homo sapiens, UniProt O00329); assay: TR-FRET enzymatic activity assay, PI3Kδ
T2 construct: made in house
T2 sequence (O00329 whole entry): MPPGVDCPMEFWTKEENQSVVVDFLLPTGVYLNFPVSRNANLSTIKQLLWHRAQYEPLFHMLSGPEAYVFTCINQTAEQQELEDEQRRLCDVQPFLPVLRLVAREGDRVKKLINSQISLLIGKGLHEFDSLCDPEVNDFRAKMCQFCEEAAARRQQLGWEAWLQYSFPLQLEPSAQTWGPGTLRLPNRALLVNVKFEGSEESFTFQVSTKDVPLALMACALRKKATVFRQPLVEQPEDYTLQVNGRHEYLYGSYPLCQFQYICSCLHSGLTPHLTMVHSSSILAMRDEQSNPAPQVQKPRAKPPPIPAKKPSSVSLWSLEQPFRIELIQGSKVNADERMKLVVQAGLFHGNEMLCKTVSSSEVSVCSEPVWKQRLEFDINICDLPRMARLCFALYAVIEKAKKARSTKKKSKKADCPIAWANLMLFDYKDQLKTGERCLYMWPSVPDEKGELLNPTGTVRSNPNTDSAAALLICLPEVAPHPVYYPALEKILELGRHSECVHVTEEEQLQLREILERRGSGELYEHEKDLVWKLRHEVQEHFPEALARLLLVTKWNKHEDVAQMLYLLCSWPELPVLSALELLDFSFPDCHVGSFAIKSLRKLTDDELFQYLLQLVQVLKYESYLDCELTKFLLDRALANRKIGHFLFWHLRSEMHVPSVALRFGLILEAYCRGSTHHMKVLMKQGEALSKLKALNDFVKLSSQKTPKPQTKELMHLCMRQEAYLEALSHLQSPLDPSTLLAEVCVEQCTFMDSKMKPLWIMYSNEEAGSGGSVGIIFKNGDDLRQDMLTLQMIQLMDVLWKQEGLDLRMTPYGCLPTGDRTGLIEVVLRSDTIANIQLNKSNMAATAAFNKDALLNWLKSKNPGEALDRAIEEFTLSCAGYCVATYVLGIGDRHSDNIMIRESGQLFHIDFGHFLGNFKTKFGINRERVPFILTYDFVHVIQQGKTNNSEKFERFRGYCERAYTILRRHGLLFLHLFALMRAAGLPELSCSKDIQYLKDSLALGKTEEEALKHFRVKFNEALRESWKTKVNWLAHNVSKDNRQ
T2 sequence (P27986 whole entry partner): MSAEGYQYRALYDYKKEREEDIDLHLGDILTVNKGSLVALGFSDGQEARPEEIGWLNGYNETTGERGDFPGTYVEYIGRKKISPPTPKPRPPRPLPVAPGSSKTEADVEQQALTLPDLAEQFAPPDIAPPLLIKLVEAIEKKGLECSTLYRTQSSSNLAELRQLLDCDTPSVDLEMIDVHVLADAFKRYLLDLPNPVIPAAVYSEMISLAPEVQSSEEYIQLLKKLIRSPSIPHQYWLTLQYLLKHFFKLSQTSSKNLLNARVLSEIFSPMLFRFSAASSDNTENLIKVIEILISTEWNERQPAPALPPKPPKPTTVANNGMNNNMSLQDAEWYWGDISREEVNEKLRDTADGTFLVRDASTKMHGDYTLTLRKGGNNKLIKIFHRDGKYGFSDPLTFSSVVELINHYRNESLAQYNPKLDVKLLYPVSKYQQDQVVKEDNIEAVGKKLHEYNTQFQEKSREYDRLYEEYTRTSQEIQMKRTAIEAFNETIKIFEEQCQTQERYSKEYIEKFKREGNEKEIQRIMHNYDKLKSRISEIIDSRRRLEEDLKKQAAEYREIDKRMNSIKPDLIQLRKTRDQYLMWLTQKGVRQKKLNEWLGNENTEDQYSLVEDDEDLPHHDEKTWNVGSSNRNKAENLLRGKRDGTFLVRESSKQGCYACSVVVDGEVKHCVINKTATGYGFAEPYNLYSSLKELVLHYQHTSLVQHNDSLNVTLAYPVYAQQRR
Experimental: as §1

[3] = biological target: T3, PI3Kγ (Homo sapiens, UniProt P48736); assay: TR-FRET enzymatic activity assay, PI3Kγ
T3 construct: made in house
T3 sequence (P48736 whole entry): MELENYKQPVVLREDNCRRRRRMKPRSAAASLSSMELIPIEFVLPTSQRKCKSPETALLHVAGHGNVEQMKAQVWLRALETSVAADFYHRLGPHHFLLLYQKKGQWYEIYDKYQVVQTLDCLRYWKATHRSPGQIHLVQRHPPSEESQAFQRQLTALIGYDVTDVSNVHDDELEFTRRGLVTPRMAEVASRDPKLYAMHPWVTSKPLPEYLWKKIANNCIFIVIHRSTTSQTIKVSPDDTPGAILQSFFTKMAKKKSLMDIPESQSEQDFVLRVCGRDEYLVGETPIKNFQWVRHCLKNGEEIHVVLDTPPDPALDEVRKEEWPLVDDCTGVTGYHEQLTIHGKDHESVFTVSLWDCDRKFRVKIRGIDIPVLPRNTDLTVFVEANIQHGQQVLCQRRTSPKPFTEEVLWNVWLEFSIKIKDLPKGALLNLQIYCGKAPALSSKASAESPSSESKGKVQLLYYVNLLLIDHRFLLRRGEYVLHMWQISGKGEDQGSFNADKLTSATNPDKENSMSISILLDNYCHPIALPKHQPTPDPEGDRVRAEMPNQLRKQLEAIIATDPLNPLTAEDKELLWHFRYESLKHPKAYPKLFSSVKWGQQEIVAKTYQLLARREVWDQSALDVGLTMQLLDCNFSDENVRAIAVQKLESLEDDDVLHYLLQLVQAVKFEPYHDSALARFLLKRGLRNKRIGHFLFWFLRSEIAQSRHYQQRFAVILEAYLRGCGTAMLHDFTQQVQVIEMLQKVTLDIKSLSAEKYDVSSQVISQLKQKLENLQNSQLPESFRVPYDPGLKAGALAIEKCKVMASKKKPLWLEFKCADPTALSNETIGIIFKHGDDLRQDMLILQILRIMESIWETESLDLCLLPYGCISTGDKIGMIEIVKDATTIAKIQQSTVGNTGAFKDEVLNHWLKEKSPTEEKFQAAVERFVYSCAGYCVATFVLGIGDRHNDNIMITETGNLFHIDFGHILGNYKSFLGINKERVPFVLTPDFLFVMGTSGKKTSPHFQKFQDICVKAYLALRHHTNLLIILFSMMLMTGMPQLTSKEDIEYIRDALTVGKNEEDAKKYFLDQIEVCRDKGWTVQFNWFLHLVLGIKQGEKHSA
T3 sequence (Q8WYR1 whole entry partner): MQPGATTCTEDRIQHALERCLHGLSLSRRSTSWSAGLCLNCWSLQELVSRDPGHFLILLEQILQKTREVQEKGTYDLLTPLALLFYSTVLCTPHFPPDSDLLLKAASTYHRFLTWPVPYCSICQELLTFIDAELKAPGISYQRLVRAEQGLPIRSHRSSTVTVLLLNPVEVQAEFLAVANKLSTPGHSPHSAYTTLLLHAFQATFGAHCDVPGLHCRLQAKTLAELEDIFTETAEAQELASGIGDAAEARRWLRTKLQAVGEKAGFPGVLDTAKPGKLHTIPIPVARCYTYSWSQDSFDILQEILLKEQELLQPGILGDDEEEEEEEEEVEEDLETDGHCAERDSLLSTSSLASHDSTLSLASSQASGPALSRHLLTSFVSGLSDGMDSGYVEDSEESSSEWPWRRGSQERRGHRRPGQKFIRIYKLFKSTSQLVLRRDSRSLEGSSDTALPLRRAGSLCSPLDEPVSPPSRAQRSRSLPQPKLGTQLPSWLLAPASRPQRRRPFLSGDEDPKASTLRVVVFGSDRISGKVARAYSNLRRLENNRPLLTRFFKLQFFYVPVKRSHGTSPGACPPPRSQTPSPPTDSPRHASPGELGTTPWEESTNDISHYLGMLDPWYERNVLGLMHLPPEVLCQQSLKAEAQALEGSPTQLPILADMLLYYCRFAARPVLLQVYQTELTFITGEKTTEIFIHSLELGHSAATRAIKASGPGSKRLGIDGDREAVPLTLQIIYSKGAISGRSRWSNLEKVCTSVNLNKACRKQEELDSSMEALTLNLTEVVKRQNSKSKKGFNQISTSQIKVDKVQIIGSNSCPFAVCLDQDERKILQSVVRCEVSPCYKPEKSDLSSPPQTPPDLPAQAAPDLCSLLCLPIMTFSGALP
Experimental: as §1

[4] = recombinant heterodimeric PI3Kβ 25-50 pM, 2× Km ATP, 30 minutes at 25°C
[5] = recombinant heterodimeric PI3Kδ 25-50 pM, 2× Km ATP, 30 minutes at 25°C
[6] = recombinant heterodimeric PI3Kγ 2 nM, 2× Km ATP, 30 minutes at 25°C

T1 sequence (P42338 whole entry): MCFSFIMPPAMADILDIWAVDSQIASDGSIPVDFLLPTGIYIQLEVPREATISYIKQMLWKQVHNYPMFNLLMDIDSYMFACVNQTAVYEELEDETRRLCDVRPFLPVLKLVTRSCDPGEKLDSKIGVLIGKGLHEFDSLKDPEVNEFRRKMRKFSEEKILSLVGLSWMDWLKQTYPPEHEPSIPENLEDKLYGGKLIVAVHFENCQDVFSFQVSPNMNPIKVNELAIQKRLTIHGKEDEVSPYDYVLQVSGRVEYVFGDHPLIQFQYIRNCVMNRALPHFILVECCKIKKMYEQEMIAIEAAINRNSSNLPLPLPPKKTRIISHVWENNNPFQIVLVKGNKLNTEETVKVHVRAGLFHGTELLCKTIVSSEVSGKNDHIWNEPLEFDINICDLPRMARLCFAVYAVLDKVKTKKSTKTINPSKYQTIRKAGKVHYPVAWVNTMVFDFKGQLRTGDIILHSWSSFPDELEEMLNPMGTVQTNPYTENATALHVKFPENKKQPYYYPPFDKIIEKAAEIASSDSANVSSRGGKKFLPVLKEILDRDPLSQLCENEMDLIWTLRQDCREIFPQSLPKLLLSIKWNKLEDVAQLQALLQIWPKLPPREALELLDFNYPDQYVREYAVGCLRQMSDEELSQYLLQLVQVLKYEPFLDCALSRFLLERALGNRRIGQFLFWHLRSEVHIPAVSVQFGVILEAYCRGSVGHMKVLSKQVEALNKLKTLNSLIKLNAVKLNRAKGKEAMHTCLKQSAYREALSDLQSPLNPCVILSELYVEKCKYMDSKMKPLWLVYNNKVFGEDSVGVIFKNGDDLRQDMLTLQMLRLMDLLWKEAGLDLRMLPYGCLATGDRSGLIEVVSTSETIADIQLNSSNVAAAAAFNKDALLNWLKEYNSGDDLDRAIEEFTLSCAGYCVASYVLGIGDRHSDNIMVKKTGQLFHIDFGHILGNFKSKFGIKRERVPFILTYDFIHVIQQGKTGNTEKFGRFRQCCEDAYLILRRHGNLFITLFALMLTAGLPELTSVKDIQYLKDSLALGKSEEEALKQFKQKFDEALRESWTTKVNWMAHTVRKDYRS
T1 sequence (P27986 whole entry partner): as the sequence (P27986 whole entry partner) above

## C[C@H](Nc1nc(N)nc(N)c1C#N)c1nc2cccc(Cl)c2c(=O)n1[C@@H]1CCNC1 [Compound 31, 2,4-diamino-6-(((S)-1-(5-chloro-4-oxo-3-((R)-pyrrolidin-3-yl)-3,4-dihydroquinazolin-2-yl)ethyl)amino)pyrimidine-5-carbonitrile]
[1]; [4]
  IC50: 78 nM
[2]; [5]
  IC50: 19 nM
[3]; [6]
  IC50: > 10000 nM

## C[C@H](Nc1nc(N)nc(N)c1C#N)c1nc2cccc(Cl)c2c(=O)n1N1CCN(CC(C)(C)C)CC1 [Compound 98, (S)-2,4-diamino-6-((1-(5-chloro-3-(4-neopentylpiperazin-1-yl)-4-oxo-3,4-dihydroquinazolin-2-yl)ethyl)amino)pyrimidine-5-carbonitrile]
[1]; [4]
  IC50: 4 nM
[2]; [5]
  IC50: 5 nM
[3]; [6]
  IC50: 1200 nM

## C[C@H](Nc1ncnc(N)c1C#N)c1nc2cccc(Cl)c2c(=O)n1N1CCNC(C(F)(F)F)C1 (stereo partly drawn) [Compound 62, 4-amino-6-(((1S)-1-(5-chloro-4-oxo-3-(3-(trifluoromethyl)piperazin-1-yl)-3,4-dihydroquinazolin-2-yl)ethyl)amino)pyrimidine-5-carbonitrile]
[1]; [4]
  IC50: 820 nM
[2]; [5]
  IC50: 9 nM
[3]; [6]
  IC50: 8400 nM

## CC[C@H](Nc1nc(N)nc(N)c1C#N)c1nc2cccc(Cl)c2c(=O)n1N1CCN(Cc2ccc(OC)cc2)CC1 [Compound 92, (S)-2,4-diamino-6-((1-(5-chloro-3-(4-(4-methoxybenzyl)piperazin-1-yl)-4-oxo-3,4-dihydroquinazolin-2-yl)propyl)amino)pyrimidine-5-carbonitrile]
[1]; [4]
  IC50: 41 nM
[2]; [5]
  IC50: 27 nM
[3]; [6]
  IC50: 1400 nM

## C[C@H](Nc1nc(N)nc(N)c1Cl)c1nc2c(F)ccc(Cl)c2c(=O)n1N1CCN(Cc2ccccc2)CC1 [Compound 117, (S)-3-(4-benzylpiperazin-1-yl)-5-chloro-2-(1-((2,6-diamino-5-chloropyrimidin-4-yl)amino)ethyl)-8-fluoroquinazolin-4(3H)-one]
[1]; [4]
  IC50: 570 nM
[2]; [5]
  IC50: 220 nM
[3]; [6]
  IC50: > 10000 nM

## C[C@H](Nc1nc(N)nc(N)c1C#N)c1nc2cccc(Cl)c2c(=O)n1N1CCN(CC(F)(F)F)CC1 [Compound 107, (S)-2,4-diamino-6-((1-(5-chloro-4-oxo-3-(4-(2,2,2-trifluoroethyl)piperazin-1-yl)-3,4-dihydroquinazolin-2-yl)ethyl)amino)pyrimidine-5-carbonitrile]
[1]; [4]
  IC50: 520 nM
[2]; [5]
  IC50: 16 nM
[3]; [6]
  IC50: 630 nM

## C[C@H](Nc1nc(N)nc(N)c1C#N)c1nc2cccc(Cl)c2c(=O)n1N1CCC(N)CC1 [Compound 129, (S)-2,4-diamino-6-((1-(3-(4-aminopiperidin-1-yl)-5-chloro-4-oxo-3,4-dihydroquinazolin-2-yl)ethyl)amino)pyrimidine-5-carbonitrile]
[1]; [4]
  IC50: 120 nM
[2]; [5]
  IC50: 4 nM
[3]; [6]
  IC50: 5000 nM

## C[C@H](Nc1nc(N)nc(N)c1C#N)c1nc2c(F)ccc(F)c2c(=O)n1N1CCNCC1 [Compound 39, (S)-2,4-diamino-6-((1-(5,8-difluoro-4-oxo-3-(piperazin-1-yl)-3,4-dihydroquinazolin-2-yl)ethyl)amino)pyrimidine-5-carbonitrile]
[1]; [4]
  IC50: 4 nM
[2]; [5]
  IC50: 3 nM
[3]; [6]
  IC50: 5400 nM

## C[C@H](Nc1nc(N)nc(N)c1C#N)c1nc2cccc(Cl)c2c(=O)n1[C@H]1CCCNC1 [Compound 28, 2,4-diamino-6-(((S)-1-(5-chloro-4-oxo-3-((S)-piperidin-3-yl)-3,4-dihydroquinazolin-2-yl)ethyl)amino)pyrimidine-5-carbonitrile]
[1]; [4]
  IC50: 170 nM
[2]; [5]
  IC50: 22 nM
[3]; [6]
  IC50: 6400 nM

## N#Cc1c(N)nc(N)nc1N[C@H](c1nc2cccc(Cl)c2c(=O)n1N1CCN(Cc2ccccc2)CC1)C1CC1 [Compound 93, (S)-2,4-diamino-6-(((3-(4-benzylpiperazin-1-yl)-5-chloro-4-oxo-3,4-dihydroquinazolin-2-yl)(cyclopropyl)methyl)amino)pyrimidine-5-carbonitrile]
[1]; [4]
  IC50: 48 nM
[2]; [5]
  IC50: 18 nM
[3]; [6]
  IC50: 1300 nM

## Nc1nc(N)c(Cl)c(N[C@H](c2nc3cccc(Cl)c3c(=O)n2N2CCOCC2)C2CC2)n1 [Compound 122, (S)-5-chloro-2-(cyclopropyl((2,6-diamino-5-chloropyrimidin-4-yl)amino)methyl)-3-morpholinoquinazolin-4(3H)-one]
[1]; [4]
  IC50: 1800 nM
[2]; [5]
  IC50: 19 nM
[3]; [6]
  IC50: 2200 nM

## Cc1nc(N)c(C(=O)N[C@@H](C)c2nc3cccc(Cl)c3c(=O)n2N2CCNCC2)nc1C [Compound 59, (S)-3-amino-N-(1-(5-chloro-4-oxo-3-(piperazin-1-yl)-3,4-dihydroquinazolin-2-yl)ethyl)-5,6-dimethylpyrazine-2-carboxamide]
[1]; [4]
  IC50: 73 nM
[2]; [5]
  IC50: 280 nM
[3]; [6]
  IC50: > 10000 nM

## C[C@H](Nc1nc(N)nc(N)c1C#N)c1nc2cccc(Cl)c2c(=O)n1C1CCN(CC(F)(F)F)CC1 [Compound 100, (S)-2,4-diamino-6-((1-(5-chloro-4-oxo-3-(1-(2,2,2-trifluoroethyl)piperidin-4-yl)-3,4-dihydroquinazolin-2-yl)ethyl)amino)pyrimidine-5-carbonitrile]
[1]; [4]
  IC50: 970 nM
[2]; [5]
  IC50: 15 nM
[3]; [6]
  IC50: 1300 nM

## C[C@H](Nc1nc(N)nc(N)c1C#N)c1nc2c(F)ccc(Cl)c2c(=O)n1N1CCN(Cc2ccccc2)CC1 [Compound 116, (S)-2,4-diamino-6-((1-(3-(4-benzylpiperazin-1-yl)-5-chloro-8-fluoro-4-oxo-3,4-dihydroquinazolin-2-yl)ethyl)amino)pyrimidine-5-carbonitrile]
[1]; [4]
  IC50: 13 nM
[2]; [5]
  IC50: 15 nM
[3]; [6]
  IC50: 470 nM

## Cc1nc(N)nc(N[C@H](c2nc3cccc(Cl)c3c(=O)n2C2[C@H]3CNC[C@@H]23)C2CC2)c1C#N (stereo in doubt) [Compound 14, 4-(((1S)-(3-((1R,5S)-3-azabicyclo[3.1.0]hexan-6-yl)-5-chloro-4-oxo-3,4-dihydroquinazolin-2-yl)(cyclopropyl)methyl)amino)-2-amino-6-methylpyrimidine-5-carbonitrile]
[1]
  IC50: 0.4 nM
[2]
  IC50: 0.3 nM
[3]
  IC50: 480 nM

## C[C@H](Nc1ncnc2ccoc12)c1nc2cccc(Cl)c2c(=O)n1N1CCNCC1 [Compound 34, (S)-5-chloro-2-(1-(furo[3,2-d]pyrimidin-4-ylamino)ethyl)-3-(piperazin-1-yl)quinazolin-4(3H)-one]
[1]; [4]
  IC50: 83 nM
[2]; [5]
  IC50: 10 nM
[3]; [6]
  IC50: > 10000 nM

## C[C@H](Nc1nc(N)nc(N)c1C#N)c1nc2cccc(Cl)c2c(=O)n1N1CCNC2(CC2)C1 [Compound 7, (S)-2,4-diamino-6-((1-(5-chloro-4-oxo-3-(4,7-diazaspiro[2.5]octan-7-yl)-3,4-dihydroquinazolin-2-yl)ethyl)amino)pyrimidine-5-carbonitrile]
[1]; [4]
  IC50: 2 nM
[2]; [5]
  IC50: 0.8 nM
[3]; [6]
  IC50: 860 nM

## C[C@H](Nc1nc(N)nc(Cl)c1C#N)c1nc2cccc(Cl)c2c(=O)n1C1CCNCC1 [Compound 128, (S)-2-Amino-4-chloro-6-((1-(5-chloro-4-oxo-3-(piperidin-4-yl)-3,4-dihydroquinazolin-2-yl)ethyl)amino)pyrimidine-5-carbonitrile]
[1]; [4]
  IC50: 10 nM
[2]; [5]
  IC50: 14 nM
[3]; [6]
  IC50: > 10000 nM

## C[C@H](Nc1nc(N)nc(N)c1Cl)c1nc2cccc(Cl)c2c(=O)n1C1CCNCC1 [Compound 25, (S)-5-chloro-2-(1-((2,6-diamino-5-chloropyrimidin-4-yl)amino)ethyl)-3-(piperidin-4-yl)quinazolin-4(3H)-one]
[1]; [4]
  IC50: 100 nM
[2]; [5]
  IC50: 25 nM
[3]; [6]
  IC50: > 10000 nM

## N#Cc1c(N)nc(N)nc1N[C@H](c1nc2cccc(Cl)c2c(=O)n1N1CCOCC1)C1CC1 [Compound 121, (S)-2,4-diamino-6-(((5-chloro-3-morpholino-4-oxo-3,4-dihydroquinazolin-2-yl)(cyclopropyl)methyl)amino)pyrimidine-5-carbonitrile]
[1]; [4]
  IC50: 134 nM
[2]; [5]
  IC50: 2 nM
[3]; [6]
  IC50: 190 nM

## C[C@H](Nc1ncnc(N)c1C#N)c1nc2cccc(Cl)c2c(=O)n1N1CCN(C)CC1 [Compound 5, (S)-4-amino-6-((1-(5-chloro-3-(4-methylpiperazin-1-yl)-4-oxo-3,4-dihydroquinazolin-2-yl)ethyl)amino)pyrimidine-5-carbonitrile]
[1]; [4]
  IC50: 190 nM
[2]; [5]
  IC50: 19 nM
[3]; [6]
  IC50: > 10000 nM

## CC[C@H](Nc1ncnc(N)c1C#N)c1nc2cccc(Cl)c2c(=O)n1N1CCNCC1 [Compound 79, (S)-4-amino-6-((1-(5-chloro-4-oxo-3-(piperazin-1-yl)-3,4-dihydroquinazolin-2-yl)propyl)amino)pyrimidine-5-carbonitrile]
[1]; [4]
  IC50: 78 nM
[2]; [5]
  IC50: 7 nM
[3]; [6]
  IC50: > 10000 nM

## C[C@H](Nc1nc(N)nc(N)c1C#N)c1nc2cccc(Cl)c2c(=O)n1N1CCN(C)CC1 [Compound 125, (S)-2,4-diamino-6-((1-(5-chloro-3-(4-methylpiperazin-1-yl)-4-oxo-3,4-dihydroquinazolin-2-yl)ethyl)amino)pyrimidine-5-carbonitrile]
[1]; [4]
  IC50: 5 nM
[2]; [5]
  IC50: 6 nM
[3]; [6]
  IC50: 350 nM

## C[C@H](Nc1ncnc(N)c1Cl)c1nc2cccc(Cl)c2c(=O)n1N1CCNCC1 [Compound 37, (S)-2-(1-((6-amino-5-chloropyrimidin-4-yl)amino)ethyl)-5-chloro-3-(piperazin-1-yl)quinazolin-4(3H)-one]
[1]; [4]
  IC50: 39 nM
[2]; [5]
  IC50: 3 nM
[3]; [6]
  IC50: > 10000 nM

## Cc1nc(N)nc(N[C@@H](C)c2nc3c(F)ccc(Cl)c3c(=O)n2C2[C@H]3CNC[C@@H]23)c1C#N (stereo in doubt) [Compound 16, 4-(((1S)-1-(3-((1R,5S)-3-azabicyclo[3.1.0]hexan-6-yl)-5-chloro-8-fluoro-4-oxo-3,4-dihydroquinazolin-2-yl)ethyl)amino)-2-amino-6-methylpyrimidine-5-carbonitrile]
[1]; [4]
  IC50: 2 nM
[2]; [5]
  IC50: 6 nM
[3]; [6]
  IC50: 2600 nM
